pIC50: −log10 of the molar value.
Tests used:
diabetic rats = details: cited from earlier work
trypsin = trypsin (Homo sapiens, UniProt P07477); assay: Determination of enzyme selectivity: trypsin; type: biochemical; details: substrate at Km concentration
Description: Human serine protease enzymes plasmin, thrombin, trypsin, Factor Xa and Factor XIIa were assayed for enzymatic activity using an appropriate fluorogenic substrate. Protease activity was measured by monitoring the accumulation of liberated fluorescence from the substrate over 5 minutes. The linear rate of fluorescence increase per minute was expressed as percentage (%) activity. The Km for the cleavage of each substrate was determined by standard transformation of the Michaelis-Menten equation.

Human plasma kallikrein = Human plasma kallikrein (Homo sapiens (Human), UniProt P03952); assay: Determination of the IC50 for plasma kallikrein; type: biochemical; details: 37° C., fluorogenic substrate H-DPro-Phe-Arg-AFC; read-out: IC50 (human PKal)
Description: Human plasma kallikrein (Protogen) was incubated at 37° C. with the fluorogenic substrate H-DPro-Phe-Arg-AFC and various concentrations of the test compound. Residual enzyme activity (initial rate of reaction) was determined by measuring the change in optical absorbance at 410 nm and the IC50 value for the test compound was determined.

Human KLK1 = Human KLK1 (Homo sapiens (Human), UniProt P06870); assay: Determination of the IC50 for KLK1; type: biochemical; details: 37° C., fluorogenic substrate H-DVal-Leu-Arg-AFC
Description: KLK1 inhibitory activity in vitro was determined using standard published methods (see e.g. Johansen et al., Int. J. Tiss. Reac. 1986, 8, 185; Shori et al., Biochem. Pharmacol., 1992, 43, 1209; Stürzebecher et al., Biol. Chem. Hoppe-Seyler, 1992, 373, 1025). Human KLK1 (Callbiochem) was incubated at 37° C. with the fluorogenic substrate H-DVal-Leu-Arg-AFC and various concentrations of the test compound. Residual enzyme activity (initial rate of reaction) was determined by measuring the change in optical absorbance at 410 nm and the IC50 value for the test compound was determined.

Human KLK1, sequence (P06870 25-262): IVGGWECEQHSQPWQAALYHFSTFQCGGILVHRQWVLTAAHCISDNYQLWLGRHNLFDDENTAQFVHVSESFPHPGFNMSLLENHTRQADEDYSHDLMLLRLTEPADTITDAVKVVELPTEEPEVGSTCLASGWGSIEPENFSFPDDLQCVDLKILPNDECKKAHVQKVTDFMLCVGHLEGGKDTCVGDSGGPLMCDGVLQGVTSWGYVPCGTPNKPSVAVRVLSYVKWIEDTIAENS
Human plasma kallikrein, sequence (P03952 391-638): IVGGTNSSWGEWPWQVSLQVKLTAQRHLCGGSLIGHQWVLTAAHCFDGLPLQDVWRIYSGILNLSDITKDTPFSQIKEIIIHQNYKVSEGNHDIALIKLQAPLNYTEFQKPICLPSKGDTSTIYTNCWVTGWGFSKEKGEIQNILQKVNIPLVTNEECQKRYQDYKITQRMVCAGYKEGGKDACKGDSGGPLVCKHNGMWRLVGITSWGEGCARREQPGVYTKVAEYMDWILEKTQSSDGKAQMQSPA
Human plasma kallikrein, sequence (P03952 20-390 partner): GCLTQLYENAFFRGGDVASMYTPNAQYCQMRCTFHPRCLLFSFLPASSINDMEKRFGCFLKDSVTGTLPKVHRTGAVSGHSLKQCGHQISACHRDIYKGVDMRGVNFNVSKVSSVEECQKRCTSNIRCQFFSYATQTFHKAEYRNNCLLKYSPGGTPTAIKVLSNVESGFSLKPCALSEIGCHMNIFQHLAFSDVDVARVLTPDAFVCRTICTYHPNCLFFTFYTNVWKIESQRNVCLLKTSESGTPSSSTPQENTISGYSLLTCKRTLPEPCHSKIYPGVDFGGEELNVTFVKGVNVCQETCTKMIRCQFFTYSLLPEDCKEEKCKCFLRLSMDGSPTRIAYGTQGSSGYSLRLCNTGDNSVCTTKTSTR

Row | pIC50 (trypsin) | Structure (SMILES) | pIC50 (Human plasma kallikrein) | pIC50 (Human KLK1) | also measured
1 | – | N=C(N)c1ccc(CNC(=O)c2cnn(Cc3ccccc3)c2)cc1 [ASP-440] | – | – | retinal vascular permeability and retinal blood flow abnormalities (diabetic rats): ameliorated
2 | < 4.40 | Cc1cc(C(=O)NCc2ccc(CN)cc2)c(C)n1Cc1csc(-c2ccccc2)n1 [Example 1, 2,5-Dimethyl-1-(2-phenyl-thiazol-4-ylmethyl)-1H-pyrrole-3-carboxylic acid 4-aminomethyl-benzylamide] | – | – | –
3 | < 4.40 | Cc1cc(CN)ccc1CNC(=O)c1cc(C)n(Cc2csc(-c3ccccc3)n2)c1C [Example 2, 2,5-Dimethyl-1-(2-phenyl-thiazol-4-ylmethyl)-1H-pyrrole-3-carboxylic acid 4-aminomethyl-2-methyl-benzylamide] | – | – | –
4 | – | Cc1cc(C(=O)NCc2ccc(CN)cc2)c(C)n1Cc1cc(-c2ccccc2)cs1 [Example 9, 2,5-Dimethyl-1-(4-phenyl-thiophen-2-ylmethyl)-1H-pyrrole-3-carboxylic acid 4-aminomethyl-benzylamide] | 6.27 | < 5.00 | –
5 | – | Cc1cc(C(=O)NCc2ccc(CN)cc2)c(C)n1Cc1ccc(-c2ccncc2)s1 [Example 21, 2,5-Dimethyl-1-(5-pyridin-4-yl-thiophen-2-ylmethyl)-1H-pyrrole-3-carboxylic acid 4-aminomethyl-benzylamide] | 5.34 | 5.12 | –
6 | – | Cc1cc(C(=O)NCc2ccc(CN)cc2)c(C)n1Cc1csc(-c2ccoc2)n1 [Example 39, 2,5-Dimethyl-1-(2-furan-3-yl-thiazol-4-ylmethyl)-1H-pyrrole-3-carboxylic acid 4-aminomethyl-benzylamide] | 5.96 | < 5.00 | –
7 | 4.58 | NCc1ccc(CNC(=O)c2cn(Cc3csc(-c4ccccc4)n3)nc2C(F)(F)F)cc1 [Example 83, 1-(2-Phenyl-thiazol-4-ylmethyl)-3-trifluoromethyl-1H-pyrazole-4-carboxylic acid 4-aminomethyl-benzylamide] | – | – | –

Row | Structure (SMILES) | pIC50 (trypsin) | pIC50 (Human plasma kallikrein) | pIC50 (Human KLK1) | also measured
8 | NCc1ccc(CNC(=O)c2cn(Cc3ccccc3)nc2-c2ccccc2)cc1 [Example 84, 1-Benzyl-3-phenyl-1H-pyrazole-4-carboxylic acid 4-aminomethyl-benzylamide] | < 4.40 | – | – | –

Source: patent publication US9834513B2, “Benzylamine derivatives” (KALVISTA PHARMACEUTICALS LIMITED, priority 2013, dated 2017)
